According to patent US7115690B2, “Fluorine-containing polymer, resist composition prepared from same and novel fluorine-containing monomer” (Daikin Industries, Ltd., priority 2001, dated 2006):
“And” between values parts separate entries of the source, which are not always exact repeats. Equal entries are not always repeated.

Tests used:
[1] = Measurement of pKa value by NaOH titration in water/acetone; conditions: for pKa: water/acetone mixture (10/15 ml)
Procedure: (§1) In a water/acetone mixture (10/15 ml) solution was put 0.4045 g of the above-mentioned cyclopentene derivative, followed by stirring at room temperature. After it was confirmed that the solution became homogeneous, titration was carried out with about 0.2 mol/liter NaOH solution. A titration curve was obtained by adding a NaOH solution dropwise in increments of 0.15 ml and recording a pH value at every addition. An equivalence point was determined by an inflection point (maximum differential value of titration curve=dpH/dml) of the titration curve. […] From a titration curve of water/acetone solution and aqueous solution which had been measured previously as a blank solution, a difference in a pH value derived from an electric potential difference between the solutions at titration of 4.0 ml was 1.50.

physchem = conditions: (2) pKa
Procedure: as §1

[2] = titration with about 0.2 mol/liter NaOH in water/acetone, corrected with blank
[3] = (2) pKa, titration with about 0.2 mol/liter NaOH in water/acetone, corrected with blank

| Molecule | (2) pKa [1, 2] | pKa [1, 3] | further results |
| --- | --- | --- | --- |
| OC(C(F)(F)F)C(F)(F)F [CF3CH(CF3)—OH, reference compound] | 9.3 |  |  |
| OC(C(F)(F)F)(C(F)(F)F)C1(F)CC2C=CC1C2 (centres unmarked) |  | 9 |  |
| CH2═CHCH2C(CF3)2OH [reference compound] | 9.6 |  |  |
| CH2═CF—C(CF3)2OH [reference compound] | 8.0 |  |  |
| OC1(C(F)(F)F)C2C=CC(C2)C1(F)F (centres unmarked) |  | 11.5 |  |
| OC(C1CC2C=CC1C2)(C(F)(F)F)C(F)(F)F (centres unmarked) |  | 10.2 |  |
| OC(C(F)(F)F)(C(F)(F)F)C1(F)C2C=CC(C2)C1(F)F (centres unmarked) |  |  | pKa (physchem): 8.3 |
| OC(C1C=CCC1)(C(F)(F)F)C(F)(F)F (centres unmarked) [Example 12, cyclopentene having —C(CF3)2OH group] |  | 9.8 | pKa value (single titration) ([1]; individual titrations of 0.4045 g, 0.8104 g and 0.9812 g in water/acetone (10/15 ml), listed as cyclopentene derivative having —C(CF3)2OH group): 9.95 and 9.86; pKa ([1]; pKa value (single titration), individual titrations of 0.4045 g, 0.8104 g and 0.9812 g in water/acetone (10/15 ml)): 9.62 |
| CF2═CF—C(CF3)2OH [reference compound] | 7.1 |  |  |
